The NIST ThermoML archive (doi:10.1016/j.fluid.2007.07.013)
Numbers after ± are expanded uncertainties. Values belong to the molecule of their own block, whether it stands above or below them.

Conditions: Liquid

Structure (SMILES): S=C=S [carbon disulfide]
vapor or sublimation pressure (273.08 K): 17 ± 12 kPa
vapor or sublimation pressure (298.4 K): 49 ± 12 kPa
vapor or sublimation pressure (323.5 K): 116 ± 12 kPa
vapor or sublimation pressure (348.45 K): 240 ± 12 kPa

Structure (SMILES): S [hydrogen sulfide]
vapor or sublimation pressure (273.08 K): 1033 ± 17 kPa
vapor or sublimation pressure (298.4 K): 2024 ± 26 kPa
vapor or sublimation pressure (323.5 K): 3564 ± 44 kPa
vapor or sublimation pressure (348.45 K): 5812 ± 72 kPa

Structure (SMILES): CS [methanethiol]
vapor or sublimation pressure (243.19 K): 20 ± 12 kPa
vapor or sublimation pressure (258 K): 42 ± 12 kPa
vapor or sublimation pressure (272.98 K): 80 ± 12 kPa
vapor or sublimation pressure (293.35 K): 170 ± 12 kPa
vapor or sublimation pressure (298.23 K): 200 ± 12 kPa

Other lines, results leading:

vapor or sublimation pressure (247.76 K): 1 kPa
vapor or sublimation pressure (272.96 K): 6 kPa
vapor or sublimation pressure (293.23 K): 17 ± 12 kPa
vapor or sublimation pressure (293.41 K): 17 ± 12 kPa
vapor or sublimation pressure (313.33 K): 40 ± 12 kPa
vapor or sublimation pressure (313.35 K): 40 ± 12 kPa
Structure (SMILES): CCSC [2-thiabutane]

vapor or sublimation pressure (252.89 K): 8 ± 12 kPa
vapor or sublimation pressure (253.06 K): 8 ± 12 kPa
vapor or sublimation pressure (272.76 K): 22 ± 12 kPa
vapor or sublimation pressure (278.46 K): 29 ± 12 kPa
vapor or sublimation pressure (293.16 K): 53 ± 12 kPa
vapor or sublimation pressure (293.43 K): 54 ± 12 kPa
vapor or sublimation pressure (313.3 K): 112 ± 12 kPa
vapor or sublimation pressure (313.43 K): 112 ± 12 kPa
Structure (SMILES): CSC [2-thiapropane]

vapor or sublimation pressure (272.94 K): 25 ± 12 kPa
vapor or sublimation pressure (293.36 K): 59 ± 12 kPa
vapor or sublimation pressure (313.41 K): 121 ± 12 kPa
Structure (SMILES): CCS [ethanethiol]
